For experiment [1], the system named is MDA-MB-231 cells. The experiment is described as follows: MTS assay (Example 1). Format: cell-based. The note with it: Homo sapiens, positive control 50 μM, 24 h, mean±SEM, n=3, read-out: MDA-MB-231 cell viability. How it is done:
(§1) • (a) Solvent extraction: Four different solvents were used, namely, methanol, hexane:ethyl acetate (39:1), ethyl acetate, and water. Briefly, 2 g of the test material (MH/GL) were dissolved in 80 ml of appropriate solvents (methanol/hexane:ethyl acetate/ethyl acetate), sonicated twice for 20 min at room temperature (RT), and centrifuged at 3000 rpm for 10 min. The supernatant was collected and evaporated using a rotary evaporation system at 65° C. The concentrated extract was subjected to nitrogen evaporation to remove all the solvent, then dissolved in DMSO to a final concentration of 60 mg/ml. For water extraction, 2 g of the test material was dissolved in 80 ml water, sonicated twice for 20 min at RT, kept at RT for three days, vortexed, and centrifuged at 3000 rpm for 10 min. The supernatant was then freeze-dried into powder. The powder was dissolved in DMSO to a final concentration of 60 mg/ml. • (b) MTS assay: The potential inhibitory effects of MH and GL extracts on HepG2 and MDA-MB-231 cells were measured using MTS assay. Briefly, 6000 cells were seeded and treated with different concentrations (6.25, 12.5, 25, 50, 100, 150, and 300 μg/ml) of extracts for 24 h. Then, MTS/PMS reagent was added and absorbance was measured at 490 nm using a plate reader. Sorafenib (20 μM) and doxorubicin (50 μM) were used as positive controls for HepG2 and MDA-MB-231 cells, respectively. […]
Background: Formazan colour is commonly taken as a measure of viable cells.

Experiment [2] has as its system HepG2 cells. The experiment is described as follows: MTS assay (Example 1). The note with it: Homo sapiens, positive control 20 μM, 24 h, mean±SEM, n=3, read-out: HepG2 cell viability. Format: cell-based. How it is done: as §1

From patent US20230293611A1, “NATURAL PRODUCT EXTRACTS AND METHODS OF USE THEREOF” (THE ADORED BEAST APOTHECARY LTD., priority 2020, published 2023) come the findings set out here.

SMILES strings stand for the structures.

One may read the viability as a read-out of living cells in per cent, often relative to untreated cells.

On to `COc1cccc2c1C(=O)c1c(O)c3c(c(O)c1C2=O)C[C@@](O)(C(=O)CO)C[C@@H]3O[C@H]1C[C@H](N)[C@H](O)[C@H](C)O1` [doxorubicin], for which, in experiment [1], the viability at 50 µM is 24.4 ± 5.1%.

Turning to `CNC(=O)c1cc(Oc2ccc(NC(=O)Nc3ccc(Cl)c(C(F)(F)F)c3)cc2)ccn1` [sorafenib], the viability at 20 µM in experiment [2] was 26 ± 3.7%.
